Measured values: patent publication US11938143B2, “Compositions comprising 2′-deoxycytidine analogs and use thereof for the treatment of sickle cell disease, thalassemia, and cancers” (AkiraBio, Inc., priority 2021, dated 2024)

Assays:
[1] = Cell viability of primary sickle erythroid progenitors by Trypan blue; assay type: cell-based; settings: human, HU 75 μM, read-out: drop in cell viability
Experimental: (§1) FIGS. 6A-6B show representative data pertaining to primary sickle erythroid progenitors generated from peripheral blood mononuclear cells isolated from sickle cell patients using a two-phase liquid culture system. Cells treated for 48 hours were analyzed. […] Shown in the graph is the mean±SEM for n=6.
(§2) Additional studies were carried out in primary sickle erythroid progenitors were next conducted. Using a previously established two-phase culture system, (See NRF2 mediates γ-globin gene regulation and fetal hemoglobin induction in human erythroid progenitors Xingguo Zhu et al., Experimental Hematology 2019; 70:85-96, incorporated by reference herein) AB1 was evaluated in progenitors cultured from peripheral blood mononuclear cells (PBMC) isolated from sickle cell subjects, at concentrations of 3, 6, and 10 nM. PBMCs were isolated by Ficoll® Paque separation and cultured in IMDM supplemented with erythropoietin (2 IU), stem cell factor (10 ng/mL) and Interleukin 3 (10 ng/mL). On day seven, drug controls HU 75 μM, Dec 200 nM and AB1 (3, 6, and 10 nM) were added for 48 hours. Cell viability was assessed with Trypan blue, and markers of erythroid differentiation were assessed by flow cytometry using antibodies for CD71 and CD235a, to evaluate changes in differentiation. […]

[2] = test system: sickle erythroid progenitors; test: Erythroid differentiation markers CD71 and CD235a by flow cytometry in sickle erythroid progenitors; assay type: cell-based, human; settings: 48 hours
Experimental: as §1
Additional studies were carried out in primary sickle erythroid progenitors were next conducted. Using a previously established two-phase culture system, (See NRF2 mediates γ-globin gene regulation and fetal hemoglobin induction in human erythroid progenitors Xingguo Zhu et al., Experimental Hematology 2019; 70:85-96, incorporated by reference herein) AB1 was evaluated in progenitors cultured from peripheral blood mononuclear cells (PBMC) isolated from sickle cell subjects, at concentrations of 3, 6, and 10 nM. PBMCs were isolated by Ficoll® Paque separation and cultured in IMDM supplemented with erythropoietin (2 IU), stem cell factor (10 ng/mL) and Interleukin 3 (10 ng/mL). On day seven, drug controls HU 75 μM, Dec 200 nM and AB1 (3, 6, and 10 nM) were added for 48 hours. Cell viability was assessed with Trypan blue, and markers of erythroid differentiation were assessed by flow cytometry using antibodies for CD71 and CD235a, to evaluate changes in differentiation. Proportions of F-cells and MFI were assayed by FACScan using staining with fluorescein isothiocyanate (FITC) anti-human HbF antibody (Bethyl). In our experience, primary erythroid progenitors are more sensitive to drug toxicity, so a lower dose range of AB1 was used. […] As a marker of early erythroid differentiation, CD71^+ progenitors were not affected by Dec or AB1 at any dose tested. In notable contrast, there was a 7-fold increase in CD71^+ cells mediated by HU (FIG. 6B).

HbF = test: F-cells and MFI by flow cytometry in sickle erythroid progenitors; assay type: cell-based, human; settings: 48 hours
Experimental: FIGS. 8A-8D show representative data pertaining to the induction of AB1 HbF and inhibition of DNMT1 levels. Sickle erythroid progenitors were treated with the various agents shown for 48 hours. […] Shown in the graph is the mean±SEM for n=6 replicates. […] In FIGS. 8C-8D, “UT” indicates untreated cells; “HU” indicates hydroxyurea; “DEC” indicates decitabine; and “AB1” indicates disclosed compound AB1; the concentrations are indicated above the graph below the text indicating treatment compound.
as §2, with “PBMCs were isolated by Ficoll® Paque separation and cultured in IMDM supplemented with erythropoietin (2 IU), stem cell factor (10 ng/mL) and Interleukin 3 (10 ng/mL). On day seven, drug controls HU 75 μM, Dec 200 nM and AB1 (3, 6, and 10 nM) were added for 48 hours.” left out
We assessed effects of AB1 at the transcription levels by RT-qPCR analysis. […]

[3] = test system: sickle erythroid progenitors; test: In vitro sickling of erythroid progenitors under overnight hypoxia (2% oxygen); assay type: cell-based, human; settings: 48 hours treatment then overnight at 2% oxygen; AB1 3, 6, 10 nM; decitabine 200 nM; HU 75 μM
Experimental: FIGS. 9A-9B show representative data pertaining to various treatments and reduction of the level of sickle erythroid progenitors. After sickle progenitors were treated with the various drugs for 48 hours as indicated, and then incubated overnight in hypoxia conditions. […] In FIGS. 9A-9B, “UT” indicates untreated cells; “HU” indicates hydroxyurea; “DEC” indicates decitabine; and “AB1” indicates disclosed compound AB1; the concentrations are indicated, and concentration used is adjacent to the text indicating treatment compound.
We assessed effects of AB1 at the transcription levels by RT-qPCR analysis. […] Complementary studies at the protein levels were completed by flow cytometry and Western blot. […] To further support the notion that AB1 induces HbF expression, Western blot analysis was performed. […] It was observed that there was a dose-dependent 80% decrease in DNMT1 in sickle erythroid progenitors at the highest AB1 10 nM concentration (FIG. 8 D). […] After treatment for 48 hours, with the various drugs, the cells were incubated overnight at 2% oxygen, then fixed with formalin and the number of sickle versus non-sickle cells counted by phase contrast microscopy, a method previously published by the Pace (PI/PD) group (see Zhu, X., Li, B. & Pace, B. S. Haematologica 102, e285-e288, doi:10.3324/haematol.2016.160788 (2017)). […]

NC(=O)NO [HU, hydroxyurea]
cytotoxicity at 48 h, 75 μM [1]: 40% | increase in CD71+ cells ([2]; HU 75 μM): 7 fold | F-cell induction (HbF; HU 75 μM, all patient data combined): not observed | decrease in sickle cells [3]: 50%

Nc1ncn([C@H]2C[C@H](O)[C@@H](CO)O2)c(=O)n1 [Dec, 4-amino-1-(2-deoxy-b-D-erythro-pentofuranosyl)-1,3,5-triazin-2(1H)-one]
CD71+ progenitors (marker of early erythroid differentiation) ([2]; Dec 200 nM, AB1 at any dose tested (3, 6, 10 nM)): not affected | level of CD235a+ cells (marker of terminal differentiation) ([2]; HU 75 μM, Dec 200 nM, AB1 3, 6, 10 nM): increased by all drugs except Dec | F-cell levels (HbF; average of SCD patients, increase from 16%, all AB1 concentrations tested, Dec 200 nM): 22% | decrease in sickle cells [3]: 80%
